Data published in ChEMBL document CHEMBL5154650, “Identification and optimization of biphenyl derivatives as novel tubulin inhibitors targeting colchicine-binding site overcoming multidrug resistance” (Eur J Med Chem, 2022).

Assays:
A549 = experiment: Antiproliferative activity against human A549 cells measured after 72 hrs by SRB assay; type: functional, cell-based
4T1 = experiment: Antitumor activity against mouse 4T1 cells xenografted in female BALB/c mouse assessed as T/C at 10 mg/kg, ip administered every other day for 14 days; type: functional; conditions: time 14 day
KB = experiment: Antiproliferative activity against human KB cells measured after 72 hrs by SRB assay; type: functional, cell-based
[1] = Antiproliferative activity against human KB/VCR cells measured after 72 hrs by SRB assay; type: functional, cell-based
[2] = Resistant index, ratio IC50 for KB/VCR cells over IC50 for KB cells; type: functional
KB-V1 = experiment: Antiproliferative activity against human KB-V1 cells measured after 72 hrs by SRB assay; type: functional, cell-based; conditions: KB-V1, 72 h
[3] = Resistant index, ratio IC50 for KB-V1 cells over IC50 for KB cells; type: functional
K562 = experiment: Antiproliferative activity against human K562 cells measured after 72 hrs by SRB assay; type: functional, cell-based; conditions: K562, 72 h
K562/Adr = experiment: Antiproliferative activity against human K562/Adr cells measured after 72 hrs by SRB assay; type: functional, cell-based
[4] = Resistant index, ratio IC50 for K562/Adr cells over IC50 for K562 cells; type: functional
[5] = Metabolic stability in human liver microsomes assessed as intrinsic clearance at 1 uM in presence of NADPH measured by LC-MS/MS analysis; type: ADME, Microsome

## Nc1c(F)cc(Cl)cc1-c1ccc(C(=O)c2ccccc2)cc1
A549; Homo sapiens, A549, 72 h
  IC50: > 10000 nM

## COc1cc(OC)c(OC)c(-c2ccc(C(=O)c3ccccc3)cc2)c1
A549; Homo sapiens, A549, 72 h
  IC50: > 10000 nM

## COc1cc(OC)c(-c2ccc(C(=O)c3ccccc3)cc2)cc1OC
A549; Homo sapiens, A549, 72 h
  IC50: > 10000 nM

## CCOc1cccc(-c2ccc(C(=O)c3ccccc3)cc2)c1
A549; Homo sapiens, A549, 72 h
  IC50: 1580 nM

## O=C(c1ccccc1)c1ccc(-c2cc(C(F)(F)F)cc(C(F)(F)F)c2)cc1
A549; Homo sapiens, A549, 72 h
  IC50: > 10000 nM

## COc1cc(C#N)cc(-c2ccc(C(=O)c3ccccc3)c(NC(C)=O)c2)c1
A549; Homo sapiens, A549, 72 h
  IC50: 1030 nM

## COc1cc(OC)c(-c2ccc(C(=O)c3ccccc3)cc2)c(OC)c1
A549; Homo sapiens, A549, 72 h
  IC50: > 10000 nM

## COc1cc(C#N)cc(-c2ccc(C(=O)c3ccccc3)c(N)c2)c1
A549; a549
  IC50: 6 nM

## CC(=O)O[C@H]1C(=O)[C@@]2(C)[C@H]([C@H](OC(=O)c3ccccc3)[C@]3(O)C[C@H](OC(=O)[C@H](O)[C@@H](NC(=O)c4ccccc4)c4ccccc4)C(C)=C1C3(C)C)[C@]1(OC(C)=O)CO[C@@H]1C[C@@H]2O [PACLITAXEL]
4T1
  T/C: 49.2%

## COc1cc(C#N)cc(-c2ccc(C(=O)c3cccc(Cl)c3)cc2)c1
A549; Homo sapiens, A549, 72 h
  IC50: 121 nM

## CC[C@]1(O)C[C@H]2CN(CCc3c([nH]c4ccccc34)[C@@](C(=O)OC)(c3cc4c(cc3OC)N(C=O)[C@H]3[C@@](O)(C(=O)OC)[C@H](OC(C)=O)[C@]5(CC)C=CCN6CC[C@]43[C@@H]65)C2)C1 [VINCRISTINE]
KB
  IC50: 6.7 nM
[1]
  IC50: 2010 nM
[2]
  Ratio IC50: 301
KB-V1
  IC50: 8570 nM
[3]
  Ratio IC50: 1282.2

## COc1cc(-c2ccc(C(=O)c3ccccc3)cc2)cc(OC)c1OC
A549; Homo sapiens, A549, 72 h
  IC50: > 10000 nM

## COc1cc(C#N)cc(-c2ccc(C(=O)c3ccccc3)c(O)c2)c1
A549; Homo sapiens, A549, 72 h
  IC50: 114 nM

## COc1ccc(C(=O)c2ccc(-c3cc(C#N)cc(OC)c3)cc2)cc1
A549; Homo sapiens, A549, 72 h
  IC50: > 10000 nM

## N#Cc1ccc(-c2ccc(C(F)(F)F)cc2)cc1
A549; Homo sapiens, A549, 72 h
  IC50: 5900 nM

## COc1cccc(C(=O)c2ccc(-c3cc(C#N)cc(OC)c3)cc2)c1
A549; Homo sapiens, A549, 72 h
  IC50: 54 nM

## COc1cc(C#N)cc(-c2ccc(C(=O)c3cccs3)cc2)c1
A549; Homo sapiens, A549, 72 h
  IC50: 1190 nM

## COc1cc2c(c(OC)c1OC)-c1ccc(OC)c(=O)cc1[C@@H](NC(C)=O)CC2 [COLCHICINE]
KB
  IC50: 18.2 nM
[1]
  IC50: 294 nM
[2]
  Ratio IC50: 16.1
KB-V1
  IC50: 1340 nM
[3]
  Ratio IC50: 73.5
K562
  IC50: 102 nM
K562/Adr
  IC50: 6550 nM
[4]
  Ratio IC50: 64.4
[5]
  CLH: 0.384 mL/min/g

## COc1cccc2c1C(=O)c1c(O)c3c(c(O)c1C2=O)C[C@@](O)(C(=O)CO)C[C@@H]3O[C@H]1C[C@H](N)[C@H](O)[C@H](C)O1.Cl [DOXORUBICIN HYDROCHLORIDE]
K562
  IC50: 108 nM
K562/Adr
  IC50: 31200 nM
[4]
  Ratio IC50: 287.7

## COc1ccccc1-c1ccc(C(=O)c2ccccc2)cc1
A549; Homo sapiens, A549, 72 h
  IC50: 2910 nM

## O=C(c1ccccc1)c1ccc(-c2ccccc2)cc1
A549; Homo sapiens, A549, 72 h
  IC50: > 10000 nM

## O=C(c1ccccc1)c1ccc(-c2cccc(Cl)c2)cc1
A549; Homo sapiens, A549, 72 h
  IC50: 1870 nM

## COc1ccc(-c2ccc(C(=O)c3ccccc3)cc2)cc1
A549; Homo sapiens, A549, 72 h
  IC50: > 10000 nM
